From ChEMBL document CHEMBL4680330, “Soloxolone methyl, as a 18βH-glycyrrhetinic acid derivate, may result in endoplasmic reticulum stress to induce apoptosis in breast cancer cells” (Bioorg Med Chem, 2021)
Activity calls are given as the source filed them. The rule behind the calls is not given here.

Experiments:
MCF7 [1] = test: Cytotoxicity against human MCF7 cells assessed as reduction in cell viability incubated for 24 hrs by ATP based luminometry; format: functional; settings: MCF7, 24 h
[2] = system: Epidermoid carcinoma cell line; test: Cytotoxicity against human Epidermoid carcinoma cell line; format: functional, cell-based
MCF7 [3] = test: Induction of early apoptosis in human MCF7 cells assessed as increase in pycnotic nuclei at 10 uM incubated for 24 hrs by Hoechst 33342 and PI staining based fluorescence microscopic analysis; format: functional, cell-based
MCF7 [4] = test: Induction of late apoptosis in human MCF7 cells assessed as increase in rate of formation of pycnotic nuclei at 10 uM by Hoechst 33342 and PI staining based fluorescence microscopic analysis; format: functional, cell-based; settings: TDE = time-dependent effect
MDA-MB-231 [5] = test: Induction of early apoptosis in human MDA-MB-231 cells assessed as increase in PI negativity at 10 uM incubated for 24 hrs by Hoechst 33342 and PI staining based fluorescence microscopic analysis; format: functional, cell-based
MCF7 [6] = test: Induction of apoptosis in human MCF7 cells assessed as cytokeratin 18 by measuring increase in M-30 level at 10 uM incubated for 48 hrs by ELISA; format: functional, cell-based
MCF7 [7] = test: Induction of apoptosis in human MCF7 cells assessed as viable cells at 10 uM incubated for 24 hrs by annexin V-FITC and PI staining based flow cytometry analysis (reference value: 69.60 %); format: functional; settings: read-out: Activity
MCF7 [8] = test: Induction of apoptosis in human MCF7 cells assessed as late apoptotic cells at 10 uM incubated for 24 hrs by annexin V-FITC and PI staining based flow cytometry analysis (reference value: 14.60 %); format: functional
MDA-MB-231 [9] = test: Induction of apoptosis in human MDA-MB-231 cells assessed as early apoptotic cells at 10 uM incubated for 24 hrs by annexin V-FITC and PI staining based flow cytometry analysis (reference value: 0.70 %); format: functional
MDA-MB-231 [10] = test: Induction of apoptosis in human MDA-MB-231 cells assessed as late apoptotic cells at 10 uM incubated for 24 hrs by annexin V-FITC and PI staining based flow cytometry analysis (reference value: 3.95 %); format: functional
[11] = Induction of caspase 3/7 activity in human MCF7 cells assessed as induction of apoptosis by measuring necrotic cells at 10 uM incubated for 24 hrs by flow cytometry analysis (reference value: 3.30 %); format: functional
[12] = Induction of caspase 3/7 activity in human MDA-MB-231 cells assessed as induction of apoptosis by measuring early apoptotic cells at 10 uM incubated for 24 hrs by flow cytometry analysis (reference value: 0.35 %); format: functional
[13] = Induction of caspase 3/7 activity in human MDA-MB-231 cells assessed as induction of apoptosis by measuring late apoptotic cells at 10 uM incubated for 24 hrs by flow cytometry analysis (reference value: 1.55 %); format: functional
[14] = Induction of caspase 3/7 activity in human MDA-MB-231 cells assessed as induction of apoptosis by measuring necrotic cells at 10 uM incubated for 24 hrs by flow cytometry analysis (reference value: 0.85 %); format: functional
MCF7 [15] = test: Induction of ROS production in human MCF7 cells at 10 uM incubated for 24 hrs by flow cytometry analysis; format: functional, cell-based
MDA-MB-231 [16] = test: Induction of cell death in human MDA-MB-231 cells assessed as upregulation of BECN1 gene at 10 uM incubated for 48 hrs by RT-PCR analysis; format: functional, cell-based
MDA-MB-231 [17] = test: Induction of cell death in human MDA-MB-231 cells assessed as upregulation of HRK gene at 10 uM incubated for 48 hrs by RT-PCR analysis; format: functional, cell-based
MCF7 [18] = test: Induction of cell death in human MCF7 cells assessed as downregulation of MLKL gene at 10 uM incubated for 48 hrs by RT-PCR analysis; format: functional, cell-based
MCF7 [19] = test: Induction of cell death in human MCF7 cells assessed as downregulation of PARP gene at 10 uM incubated for 48 hrs by RT-PCR analysis; format: functional, cell-based
MCF7 [20] = test: Induction of cell death in human MCF7 cells assessed as downregulation of MLKL gene at 10 uM measured after 48 hrs by RT-PCR analysis; format: functional, cell-based
MCF7 [21] = test: Induction of cell death in human MCF7 cells assessed as downregulation of RIPK gene at 10 uM measured after 48 hrs by RT-PCR analysis; format: functional, cell-based
MDA-MB-231 [22] = test: Induction of cell death in human MDA-MB-231 cells assessed as downregulation of RIPK gene at 10 uM measured after 48 hrs by RT-PCR analysis; format: functional, cell-based
MCF7 [23] = test: Induction of apoptosis in human MCF7 cells assessed as cleaved PARP level at 10 uM incubated for 24 hrs by Western blot analysis (reference value: 1); format: functional
MDA-MB-231 [24] = test: Induction of apoptosis in human MDA-MB-231 cells assessed as cleaved PARP level at 10 uM incubated for 24 hrs by Western blot analysis (reference value: 1); format: functional
MCF7 [25] = test: Induction of apoptosis in human MCF7 cells assessed as pro-caspase 3 level at 10 uM incubated for 24 hrs by Western blot analysis (reference value: 1); format: functional
MCF7 [26] = test: Induction of apoptosis in human MCF7 cells assessed as cleaved pro-caspase 3 level at 10 uM incubated for 24 hrs by Western blot analysis (reference value: 1); format: functional
MDA-MB-231 [27] = test: Induction of apoptosis in human MDA-MB-231 cells assessed as cleaved pro-caspase 8 level at 10 uM incubated for 24 hrs by Western blot analysis (reference value: 1); format: functional
MDA-MB-231 [28] = test: Induction of apoptosis in human MDA-MB-231 cells assessed as cleaved pro-caspase 3 level at 10 uM incubated for 24 hrs by Western blot analysis (reference value: 1); format: functional
MDA-MB-231 [29] = test: Induction of endoplasmic reticulum stress in human MDA-MB-231 cells assessed as BIP expression at 10 uM incubated for 24 hrs by Western blot analysis (reference value: 1); format: functional
MDA-MB-231 [30] = test: Induction of endoplasmic reticulum stress in human MDA-MB-231 cells assessed as CHOP expression at 10 uM incubated for 24 hrs by Western blot analysis (reference value: 1); format: functional
MDA-MB-231 [31] = test: Induction of late apoptosis in human MDA-MB-231 cells assessed as increase in PI […] at 10 uM by Hoechst 33342 and PI staining based fluorescence microscopic analysis; format: functional, cell-based; settings: TDE = time-dependent effect

Q: With `COC(=O)[C@@]1(C)CC[C@]2(C)CC[C@]3(C)[C@H](C(=O)C=C4[C@@]5(C)C=C(C#N)C(=O)C(C)(C)[C@@H]5CC[C@]43C)[C@@H]2C1` as the molecule, how does the IC50 (MCF7 [1]) read?
A: Its IC50 is 11.7 µM.

Q: And the IC50 [2]?
A: Its IC50 is no less than 0.3 µM.

Q: What about the Activity (MCF7 [3]) of the same molecule?
A: Its Activity is “Active”.

Q: And the Activity (MCF7 [4])?
A: The Activity was “Tde”.

Q: And the Activity (MDA-MB-231 [5])?
A: The Activity was “Active”.

Q: What about the Activity (MCF7 [6]) of the same molecule?
A: The Activity was “Active”.

Q: And the viability at 10 µM (MCF7 [7])?
A: Its viability at 10 µM is 70.7%.

Q: What about the Activity (MCF7 [8]) of the same molecule?
A: The Activity was 18.35%.

Q: What about the Activity (MDA-MB-231 [9]) of the same molecule?
A: Its Activity is 2.95%.

Q: What about the Activity (MDA-MB-231 [10]) of the same molecule?
A: The Activity was 69.55%.

Q: What about the Activity [11] of the same molecule?
A: Its Activity is 14.7%.

Q: What about the Activity [12] of the same molecule?
A: The Activity was 12.75%.

Q: And the Activity [13]?
A: The Activity was 76.4%.

Q: And the Activity [14]?
A: The Activity was 0.5%.

Q: What about the Activity (MCF7 [15]) of the same molecule?
A: The Activity was “inactive”.

Q: And the Activity (MDA-MB-231 [16])?
A: The Activity was “Active”.

Q: What about the Activity (MDA-MB-231 [17]) of the same molecule?
A: The Activity was “Active”.

Q: What about the Activity (MCF7 [18]) of the same molecule?
A: Its Activity is “Active”.

Q: And the Activity (MCF7 [19])?
A: The Activity was “Active”.

Q: What about the Activity (MCF7 [20]) of the same molecule?
A: Its Activity is “inactive”.

Q: What about the Activity (MCF7 [21]) of the same molecule?
A: Its Activity is “inactive”.

Q: What about the Activity (MDA-MB-231 [22]) of the same molecule?
A: Its Activity is “inactive”.

Q: And the “fold change (FC)” value (MCF7 [23])?
A: The value was 4.5.

Q: What about the “fold change (FC)” value (MDA-MB-231 [24]) of the same molecule?
A: Its value is 6.3.

Q: What about the “fold change (FC)” value (MCF7 [25]) of the same molecule?
A: Its value is 1.7.

Q: What about the “fold change (FC)” value (MCF7 [26]) of the same molecule?
A: Its value is 1.2.

Q: And the “fold change (FC)” value (MDA-MB-231 [27])?
A: Its value is 2.4.

Q: And the “fold change (FC)” value (MDA-MB-231 [28])?
A: Its value is 12.7.

Q: And the “fold change (FC)” value (MDA-MB-231 [29])?
A: Its value is 2.

Q: What about the “fold change (FC)” value (MDA-MB-231 [30]) of the same molecule?
A: Its value is 6.

Q: And the Activity (MDA-MB-231 [31])?
A: The Activity was “Tde”.
